What all share (format): in vivo, Caenorhabditis elegans
Experiment [1] deals with wildtype (N2) worms. The experiment can be described thus: Pharyngeal pumping rate. The settings on record: 50 μM ThT. On the procedure:
FIG. 11A-B. ThT produces small changes in pharyngeal pumping in N2 worms and increases lifespan on a dietary restriction model. a) Pharyngeal pumping rates of wildtype animals raised on 50 μM ThT measured at 3 (left panel) and 6 days of treatment (right panel). Pumping rates of 15 individuals were scored and the averages of three independent experiments are shown (*p<0.01). b) 1 and 10 μM ThT increase lifespan of N2 worms raised on 1×10^9 cfu/ml at 20° C. as compared to untreated worms (left panel). Percent gain in median survival of N2 populations cultured on 0-50 μM ThT (right panel). Bars are representative of 2 to 4 independent experiments per duplicate.

Experiment [2] deals with UNC-54 (paramyosin) in unc-54(e1157)I. The experiment can be described thus: Paramyosin immunolocalization / sarcomere structure. Particulars: 50 μM ThT, 24 h at 25° C. On the procedure: For fluorescent microscopy, TJ356 zIs356 IV [daf-16::daf-16-gfp+rol-6] or CF2189 Is001(skn-1::gfp+rol-6) were paralyzed with 1 mM levamisole mounted on 1% agarose pads and imaged using Olympus BX51 (60× objective) and HCImage software (Hamamatsu). For immunofluorescence, N2, […], CB1157 unc-54(e1157) or CL4176 dvIs27 [myo-3::Aβ(3 to 42)-let 3′UTR(pAF29); pRF4 (rol-6(su1006))] worms were treated for 24-36 h with or without 50 μM ThT at 25° C. After this period the worms were collected, rinsed, and fixed in 4% paraformaldehyde overnight. […] Paramyosin and perlecans were detected with primary monoclonal antibodies 5-23 and MH3 (developed by Henry Epstein and Robert H. Waterston and obtained from the Developmental Studies Hybridoma Bank developed under the auspices of the NICHD and maintained by The University of Iowa, Department of Biology, Iowa City, Iowa 52242) and AlexaFluor 633 goat anti-mouse (Molecular Probes) as secondary antibody. Soluble oligomers and Aβ peptide were detected with anti polyclonal All (Invitrogen) and 6E10 monoclonal (Covance) primary antibodies, respectively, with AlexaFluor 568 goat anti-rabbit and AlexaFluor 488 goat anti-mouse (Molecular Probes) as secondary antibodies. Images were processed and quantified by using Image Analyst MK II (Novato, Calif.).

Experiment [3] has as its system HSP-16.2. The experiment is described as follows: Western blot HSP-16.2. Particulars: 50 μM ThT, 100 μM curcumin, 4 and 7 days of treatment. On the procedure:
Peptide corresponding to amino acids 110-145 ([…]; SEQ ID NO:1) of HSP-16.2 was used to commercially synthesize antiserum (Invitrogen). Briefly, KLH-peptide was emulsified by mixing with an equal volume of Freund's adjuvant and injected into three subcutaneous dorsal sites for a total of 0.1 mg of peptide for immunization. The animals (rabbits) were bled, the blood allowed to clot and the serum collected by centrifugation. Monoclonal HSP-70 and Polyclonal HSF-1 primary antibodies were from stressgen (N27F3-4 and SPA-901, respectively).
Worms were transferred to siliconized eppendorf tubes, washed once in S-basal and frozen in liquid N2. Standard SDS-PAGE was performed using (4-12%) NOVEX gels and IVIES running buffer. Following transfer PVDF (BioRad) membranes were incubated with antisera (1:10000) or primary antibodies (1:1000) diluted in blocking buffer and then with secondary, goat anti-rabbit IgG antibody/horseradish peroxidase conjugate (Pierce), diluted 1:25000. Detection was undertaken with chemiluminescent reagents (SuperSignal, Pierce) and standard autoradiography.
On the technique in general: In western blotting, separated proteins are transferred to a membrane and probed.

Experiment [4] has as its system unc-54 RNA. The experiment can be described thus: Real time quantitative PCR, unc-54. Particulars: 50 μM ThT, 3, 6 and 12 days of treatment. The procedure:
Twelve single adults from control or 50 μM ThT populations were picked after 3, 6 and 12 days of treatment into 5 μl of distilled water and flash frozen until extraction. Individual worms were extracted using the RNeasy Micro Kit, TissueLyser and QIAcube (Qiagen). Using the manufacturer's standard Animal Tissue protocol, each sample was homogenized in buffer RLT/Bme (Qiagen) on the TissueLyser (6 min total at 20 Hz). Samples, reagents and columns were then loaded into the QIAcube robot, and processed using the “RNeasy Micro—Animal tissues and cells—DNase digest” program. Each sample was then eluted in 14 μl of Nuclease-free water. cDNA templates for the Real Time PCR reactions were made using a combination of Message Sensor RT kit (Ambion's) and TaqMan PreAmp Master Mix (Applied Biosystems). The entire worm sample was added to the RT reaction and reversed transcribed at 50° C. for 20 min, using Message Sensor's “Two Step RT-PCR Protocol” (sample RT's were randomized). Then 2.5 μl of the cDNA sample was pre-amplified with a “4×Multiplex Primer Mix” for 14 cycles using TaqMan PreAmp master mix and protocol (ABI). Two modifications were made to ABI's protocol: 1. the reaction volume was reduced to 10 μl and 2. after pre-amplification, each cDNA sample was diluted 1:5 with 1XTE Buffer (Promega). cDNA samples were stored at −20° C. until needed. […]

The test system of experiment [5] is HE250 [unc-52(e669su250)II]. The experiment is described as follows: Worm paralysis assay, unc-52 ts mutant.
Procedure: (§1) Scoring for paralysis was initiated 2 and 8 days after temperature upshift for CL4176 and AM140, respectively. […] For sensitivity to EtOH or levamisole resistance, CW152 gas-1 (fc21) X and ZZ26 unc-63(x26)I worms were picked into 0.4 M EtOH or 50 μM levamisole, respectively, equilibrated for 5 min, and scored for paralysis as described above. Treated and untreated worms were compared with an unpaired t-test (implemented in Prism 4, Graphpad™ Software, Inc., San Diego, Calif., USA).
Experiment [6] deals with CB1157 [unc-54(e1157)I]. The experiment can be described thus: Worm paralysis assay, unc-54 ts mutant. The settings on record: restrictive temperature 25° C.
Procedure: as §1
In experiment [7] the test system is AM140 (rmIs132[P(unc-54) Q35::YFP]). The experiment is described as follows: Worm paralysis assay, polyQ model. The settings on record: AM140, 25° C., 8 days; 50 μM ThT, 100 μM curcumin.
Procedure: as §1

The results in this text go back to patent US20110081428A1, “Use of thioflavin-like compounds to increase life span and/or health span” (priority 2009, published 2011).

The structures appear in SMILES notation. “Also recorded” adds a separate entry of the source.

Consider `Cc1ccc2c(c1)sc(-c1ccc(N(C)C)cc1)[n+]2C.[Cl-]` [ThT, 4-(3,6-dimethyl-1,3-benzothiazol-3-ium-2-yl)-N,N-dimethylaniline chloride], for which the “decrease in pharyngeal pumping rate” value in experiment [1] (after 3 days of treatment) was about 15%. Besides, the pharyngeal pumping rate entry in experiment [1] (after 6 days of treatment) is “No difference was detected”. Further, the muscle sarcomere structure result in experiment [2] is on record as “prevented the disruption of the muscle sarcomeres”. Further, the HSP-16.2 protein levels entry in experiment [3] is on record as “up-regulated”. In addition, the “unc-54 RNA levels” value in experiment [4] was “increases unc-54 RNA levels after 3, but not at 6 or 12 days of treatment”. Also, the “paralysis phenotype, continuous exposure and addition after 18 h at restrictive temperature” value in experiment [5] (HE250, 50 μM ThT, scored after 36 h at 25° C.) is “Prevention of paralysis phenotype”. Besides, the “paralysis phenotype of unc-52 mutant” value in experiment [5] (HE250, 25° C., 36 h, 50 μM ThT, 100 μM curcumin, 100 μM rifampicin) is given as “suppressed paralysis; also recorded: Protection”. Besides, in experiment [6], the “paralysis phenotype of unc-54 mutant” value was “suppressed paralysis”. Besides, the “proportion of paralyzed worms” value in experiment [7] is “significantly decrease the proportion of paralyzed worms”.
